Assay results: paper PMC5666006, “Combating virulence of Gram-negative bacilli by OmpA inhibition” (Scientific Reports, 2017)
Where a SMILES comes first, the peptide text is derived from it. [ ]: non-standard residue; d: D form.

Key:
[1] = AOA-2 pharmacokinetics in serum; conditions: mouse, in vivo, ip, 10 mg/kg
[2] = system: P. aeruginosa PaO1; test: Adhesion of bacteria to A549 cells; format: cell-based; conditions: 0.25 or 0.5 mg/mL, 2 h
Method: (§1) Subsequently, infected A549 cells were washed five times with pre-warmed PBS and lysed with 0.5% Triton X-100. Diluted lysates were plated onto blood agar (Blood-Agar Columbia, Becton Dickinson Microbiology Systems, USA) and incubated at 37 °C for 24 h for enumeration of developed colonies and then the determination of the number of bacteria that attached to A549 cells.

[3] = system: E. coli ATCC 25922; test: Adhesion of bacteria to A549 cells; format: cell-based; conditions: 0.25 or 0.5 mg/mL, 2 h
Method: as §1

[4] = system: C57BL/6 female mice; test: AOA-2 in vivo toxicity (Reed and Munch method); parameters: species or system mouse
Method: (§2) Animals were housed in regulation cages with food and water ad libitum. This study was carried out in strict accordance with the recommendations in the Guide for the Care and Use of Laboratory Animals[41]. The protocol was approved by the Committee on the Ethics of Animal Experiments of the University Hospital of Virgen del Rocío, Seville (2012PI/238). All surgery was performed under sodium thiopental anaesthesia, and all efforts were made to minimize suffering.
(§3) The Reed and Munch method was used[42]. […] LD50 value was determined using the Probit method.
(§4) 20, 40, 80 or 160 mg/kg. Mice survival was monitored for a one week and lethal doses (LD) 0,
(§5) 50 and 100 were calculated.

[5] = AOA-2 in vivo toxicity (Reed and Munch method); parameters: species or system mouse; conditions: female, C57BL/6, mouse, in vivo, ip, mice, single i.p. dose, groups of six, survival one week
Method: as §2, §3, §4, §5

[6] = system: P. aeruginosa PaO1; format: cell-based
Method: (§6) In the initial screening, the bactericidal activity of the synthetic peptides and their toxicity on human lung epithelial cells (A549) were evaluated.
(§7) Table S1. MICs of the six hexapeptides for A. baumannii and E. coli.
(§8) Peptides P. aeruginosa PaO1
(§9) MIC: minimal inhibitory concentration

[7] = system: E. coli ATCC 25922; format: cell-based
Method: as §6, §7, §8, §9

[8] = system: A. baumannii ATCC 17978; format: cell-based
Method: as §6, §7, §8, §9

[9] = system: P. aeruginosa PaO1; test: Fibronectin-binding assay; format: cell-based; conditions: P. aeruginosa PaO1, 0.25 or 0.5 mg/mL, 2 h
Method: (§10) Fibronectin-binding assay was performed as described previously. Briefly, A. baumannii ATCC 17978, P. aeruginosa PaO1, and E. coli ATCC 25922 grown overnight at 37 °C in LB were resuspended in PBS and collected by centrifugation at 5,000 × g for 10 min. […] Then, 50 µL of bacterial suspension were mixed with 50 µL of PBS, added to fibronectin coated wells and incubated 2 h at room temperature for bacterial adsorption. Non-adhered bacteria were discarded and wells were washed six times with sterile PBS to remove unbound bacteria. Adherent bacteria were then collected with 125 µL of sterile PBS containing 0.5% Triton X-100. Diluted lysates were plated onto sheep blood agar and incubated at 37 °C for 24 h for enumeration of developed colonies and then the determination of the number of bacteria that attached to fibronectin.

[10] = system: E. coli ATCC 25922; test: Fibronectin-binding assay; format: cell-based; conditions: E. coli ATCC 25922, 0.25 or 0.5 mg/mL, 2 h
Method: as §10

[11] = system: A. baumannii ATCC 17978; test: Fibronectin-binding assay; format: cell-based; conditions: A. baumannii ATCC 17978, 0.25 or 0.5 mg/mL, 2 h
Method: as §10

[12] = Peptide toxicity, MTT assay; format: cell-based, human; conditions: human, A549 cells
Method: Human type II pneumocyte cell line A549 derived from a human lung carcinoma were obtained from American Type Culture Collection (LGC, UK) and were grown in DMEM medium (Invitrogen, Spain) supplemented with 10% heat-inactivated fetal bovine serum, vancomycin (50 μg/mL), gentamicin (20 μg/mL), amphotericin B (0.25 μg/mL) (Invitrogen, Spain) and 1% HEPES (Invitrogen, Spain) in a humidified incubator, 5% CO2 at 37 °C. A549 cells were routinely passaged every 3–4 days. The cells were seeded 24 h in 96-well plates for cellular viability assay, and in 24 well plates for adhesion and immnunofluorescence assays.
Peptide toxicity. […] Prior the evaluation of the peptides cytotoxicity, A549 cells were washed three times with prewarmed PBS. Then, peptides cytotoxicity was initially assessed quantitatively by monitoring the mitochondrial reduction activity using the MTT assay as described previously. The percentage of […] was calculated from the optical density (OD) as follow: [(OD of treated cells / mean OD of non-treated cell) × 100].
Table S2. Percentages of A549 cellular viability assessed through mitochondrial reduction
activity (MTT assay) in presence of anti-OmpA hexapeptides and control peptides (SXV4 and
COL). COL: colistin. ND: not determined.
Peptides 0.25 mg/mL 0.5 mg/mL 1 mg/mL 5 mg/mL

With N=C(N)NCCC[C@@H]1NC(=O)[C@H]2CCCN2C(=O)[C@H](Cc2c[nH]c3ccccc23)NC(=O)[C@H](CCCNC(=N)N)NC(=O)[C@H]2CCCN2C(=O)[C@H](Cc2c[nH]c3ccccc23)NC1=O [AOA-2] (cyclo(RW[dP]RW[dP])) the half-life [1] was 56 min, the “adherence of P. aeruginosa to A549 cells (in words)” value [2] was “significant reduction in adherence” and the “adherence of E. coli to A549 cells (in words)” value [3] was “significant reduction in adherence”. For the same compound, the “dose without any evidence of toxicity” value ([4]; i.p.) was no more than 40 mg/kg, the LD100 ([4]; single i.p. dose, groups of six, survival one week) was 160 mg/kg and the LD50 at 168 h ([5]; Probit method) was 85 mg/kg. It also gave an MTD at 168 h ([5]; read-out: LD0 (maximum tolerated dose)) of 40 mg/kg, an MIC [6] greater than 500 µg/mL and an MIC [7] greater than 500 µg/mL. The MIC [8] was greater than 500 µg/mL, the “bacterial adherence to fibronectin (in words)” value (shortened to “bacterial adherence”) [9] was “significant decrease in the bacterial adherence to fibronectin” and the “bacterial adherence” value [10] was “significant decrease in the bacterial adherence to fibronectin”. The “bacterial adherence” value [11] was “significant decrease in the bacterial adherence to fibronectin”, the viability at 48 h, 250 µg/mL [12] was 98.09 ± 0.27% and the viability at 48 h, 500 µg/mL [12] was 98.33 ± 0.4%. It also gave a viability at 48 h, 1000 µg/mL [12] of 98.48 ± 0.55%.
